Assay [1] relates to OE33. The assay can be described thus: Evaluation of cell death morphology by light microscopy. The format is cell-based, human. The note with it: 5-FU (50 μM) or cisplatin (40 μM), 48 hours. The method, then:
Morphological features of cells treated with 5-fluorouracil (5-FU)/cisplatin, without and with 3-MA, LY294002, Bafilomycin, Lithium chloride, rapamycin or HA14-I were examined by light microscopy. Morphologies of treated cells were examined 24 and 48 hours post treatment, treatment times are referred to in figure legends. Aliquots of vehicle control and drug treated cells were cytospun onto glass slides and stained with Rapi-Diff (Braidwood laboratories, UK). The extent of apoptotic and non-apoptotic cell death was determined by counting the cells in at least three fields of view per slide, with an average of ˜100 cells per field. Apoptotic cell death is characterized by the presence of two or more of the following morphological features: cell shrinkage, chromatin condensation, DNA degradation and fragmentation into ‘apoptotic bodies’, within an intact plasma membrane. Autophagic cell death was identified by clear elevation of cytoplasmic vesicles, loss of cytoplasmic material, pyknosis of the nuclear material and an intact nuclear membrane. Cytospin images are representative of at least three independent experiments.

The test system of assay [2] is CT26 (Colorectal carcinoma cells). The assay can be described thus: CT26 colorectal carcinoma model, intratumoural 5-FU / Lithium Chloride. It counts as in vivo, mice. To be noted: intratumoural thrice weekly; Lithium Chloride 200 mg/kg; 5-FU 20 mg/kg.
Method: For routine tumour induction, 1×10^6 CT26 (Colorectal carcinoma cells) suspended in 200 μl of serum free DMEM were injected subcutaneously into the right flank of adult female Balb/c mice, after anaesthesia. Mice were randomly divided into experimental groups. Mice were treated at a tumour volume of approximately 60 mm^3 in volume (5-7 mm major diameter). All treatments were delivered in 50 μl volumes, administered directly into the tumour, thrice weekly with PBS (Control), Lithium Chloride (200 mg/kg), 5-FU (20 mg/kg) and a combination of both Lithium and 5-FU (200 mg/kg, 20 mg/kg). Following drug treatment, tumours were monitored by alternate day measurements in two dimensions, using Verniers Calipers. Tumor volumes were calculated according to the formula V=ab^2/6, where ‘a’ is the longest diameter of the tumor and ‘b’ is the longest diameter perpendicular to diameter ‘a’. Animals were culled when tumour volumes exceeded ˜500 mm^3 (no greater than 15 mm in diameter). […] Treatment of these animals was maintained until day 58, following which all treatments ceased.
Assay [3] has as its system OE21. The assay can be described thus: Electron microscopy. The format is cell-based, human. To be noted: 5-FU (25 μM), 48 hours. The procedure: (§1) Cells were seeded on semi-porous membranes and incubated in 5-Fluoruracil (5-FU) for 48 hours. Cells were then fixed in a […] phosphate buffer (pH 7.4), containing 2.0% glutaraldehyde, at room temperature (RT) for 40 minutes. Cells were post-fixed in Osmium tetroxide (OsO4) at RT for 60 minutes, dehydrated in ascending grades of ethanol solutions (50%, 70%, 95%, 100% and 100% dry), prior to embedding in Araldite resin. Samples were subjected to a graded infiltration process with araldite (epoxy resin) before being set and sectioned. Representative areas were chosen for ultra-thin sectioning and samples were examined by electron microscopy.

Assay [4] has as its system OE19. The experiment in a line: Electron microscopy. The note with it: 5-FU (25 μM), 48 hours. The format is cell-based, human. The method, then:
as §1

In the next assay the test system is LC3 in OE33 cells. The assay can be described thus: LC3 / GFP-LC3 processing and distribution (Western blot, fluorescence microscopy). It counts as cell-based, human. The procedure: (§2) Total cellular protein extracts were prepared by scraping the cells into modified RIPA buffer (50 mM Tris HCl (pH 7.4), 150 mM NaCl, 0.25% Sodium deoxycholate, 1% Igepal, protease inhibitors 1 mM EDTA, 1× Pefabloc, 1× protease inhibitor cocktail, 1 mM Na3VO4, 1 mM NaF). All protein samples were separated by SDS-PAGE (10/12%) and electrophoretically transferred onto nitrocellulose membrane. All primary antibodies were incubated overnight at 4° C.: anti-phospho mTOR (Ser 2448) and anti-p70^S6K (Thr 389) (Cell Signaling Technologies, UK), anti-Beclin-1 (BD Biosciences, UK) and anti-LC3 (Medical & Biological Laboratories, Japan). The membranes were incubated with the relevant horseradish peroxidase conjugated secondary antibodies (DakoCytomation, Dublin) and detected by chemiluminescence (ECL Amersham, UK).
(§3) To visualize and quantify the formation of autophagic vesicles, the green fluorescent protein (GFP)-LC3 (pEGFP-LC3) expression vector, kindly supplied by Dr. T. Yoshimori (National Institute of Genetics, Japan) was used. Cells were transiently transfected with the Amaxa electroporation system according to the supplier's protocol. Twenty-four hours post transfection, cells were treated with 5-FU and/or Cisplatin, fixed in 4% paraformaldehyde in PBS and transferred onto slides using a non-fluorescent fixative for analysis by fluorescence microscopy. Alternatively, Western Blot analysis was used to assess the expression and processing of LC3. […] The membrane sequestered, lipid-conjugated form of LC3-II remains with the autophagosome membrane after the vesicle has formed, and levels of both isoform are detected by Western Blot. Transfection efficiency was consistent for a given cell line, OE33 and KYSE450 cell lines (˜60-70%) compared to OE19 and OE21 cell lines (˜30%).

The test system of the next assay is LC3 in KYSE450 cells. The description is as above. The format is cell-based, human. The method, then:
as §2, §3

Another assay concerns LC3 in OE21 cells. The assay is described as above. It counts as cell-based, human. The procedure:
as §2, §3

The next assay concerns LC3 in OE19 cells. The assay is described as above. It counts as cell-based, human. The procedure:
as §2, §3

Assay [5] deals with OE33. The assay can be described thus: Mitochondrial depolarization, JC-1 probe. The format is cell-based, human. To be noted: 48 hour treatment. The method, then: (§4) Mitochondrial membrane potential was determined using the JC-1 probe (Molecular Probes). In non-apoptotic cells, JC1 accumulates as aggregates in the mitochondria, which stain red (FL2; 590 nm). At the onset of apoptosis, a loss of mitochondrial membrane potential (ΔΨm) releases the aggregated JC1, returning it to its monomeric form, which stains the cytosol green (FL1; 530 nm). Therefore, fluorescence of the JC-1 probe in the FL-2 channel decreases as mitochondrial membrane integrity is lost, while the fluorescence in FL-1 channel increases. Cells were incubated in JC1 (7.5 μg/ml) at 37° C. for 15 mins, and washed prior to analysis by flow cytometry (FACScan, Becton Dickinson). Percentages denote the proportion of cells with depolarised mitochondria following 48 hour incubation with 5-Fluorouracil and represent at least three independent experiments.

Assay [6] has as its system OE21. The experiment in a line: Mitochondrial depolarization, JC-1 probe. The format is cell-based, human. To be noted: 48 hour treatment. The method, then: as §4
In assay [7] the test system is OE19. The experiment in a line: Mitochondrial depolarization, JC-1 probe. The format is cell-based, human. To be noted: 48 hour treatment. The method, then: as §4
The test system of assay [8] is KYSE450. The assay can be described thus: Mitochondrial depolarization, JC-1 probe. The format is cell-based, human. To be noted: 48 hour treatment. The procedure:
as §4

Assay [9] has as its system CT26 (Colorectal carcinoma cells). The experiment in a line: CT26 colorectal carcinoma model, intratumoural Rapamycin / 5-FU. The format is in vivo, mice. To be noted: intratumoural thrice weekly; Rapamycin 0.6-2 mg/kg; 5-FU 20 mg/kg.
Method: For routine tumour induction, 1×10^6 CT26 (Colorectal carcinoma cells) suspended in 200 μl of serum free DMEM are injected subcutaneously into the right flank of adult female Balb/c mice, after anaesthesia. Mice are randomly divided into experimental groups. Mice are treated at a tumour volume of approximately 60 mm^3 in volume (5-7 mm major diameter). […] Following drug treatment, tumours are monitored by alternate day measurements in two dimensions, using Verniers Calipers. Tumor volumes are calculated according to the formula V=ab^2/6, where ‘a’ is the longest diameter of the tumor and ‘b’ is the longest diameter perpendicular to diameter ‘a’. Animals are culled when tumour volumes exceed ˜500 mm^3 (no greater than 15 mm in diameter). […] Treatment of these animals is maintained until day 58, following which all treatments cease.
Assay [10] deals with OE33. The experiment in a line: Monodansylcadaverine (MDC)-labelled vacuoles. The format is cell-based, human. To be noted: 25 μM. The procedure: (§5) MDC is an autofluorescent weak base that accumulates in acidic lysosomal vacuoles, showing high selectivity for autophagosomes, due to the high level of unhydrolyzed membrane lipids from engulfed organelles, which enhance MDC fluorescence. Cells were incubated with 0.1 mM MDC in PBS at 37° C. for 10 minutes (Biederbick et al., 1995), washed and immediately analyzed by fluorescent microscopy.

Assay [11] deals with OE21. The assay can be described thus: Monodansylcadaverine (MDC)-labelled vacuoles. It counts as cell-based, human. To be noted: 25 μM. The method, then:
as §5

In assay [12] the test system is OE19. The experiment in a line: Monodansylcadaverine (MDC)-labelled vacuoles. The note with it: 25 μM. The format is cell-based, human. The procedure:
as §5

Assay [13] deals with KYSE450. The assay can be described thus: Monodansylcadaverine (MDC)-labelled vacuoles. The format is cell-based, human. The note with it: 25 μM. The method, then: as §5
Setting [14] is: 5-FU or cisplatin (images not shown).

“Also recorded” adds a separate entry of the source.

Take `O=c1[nH]cc(F)c(=O)[nH]1` [5-FU, 5-fluorouracil]: the cell death morphology entry in the assay with OE33 [1] was “predominantly apoptotic cell death morphology”. Also, the “survival: day beyond which no animal of the group was alive / final animal euthanized” value in assay [2] amounted to 33 days. The “ultra structural features (electron microscopy)” value is listed as “morphological changes consistent with classical apoptotic cell death” in the assay with OE21 [3] and “numerous cytoplasmic vacuoles are evident” with OE19 [4]. For the same compound, the “GFP-LC3 distribution (fluorescence microscopy)” value with LC3 in OE33 cells (setting [14]) is on record as “Diffuse cytoplasmic localization of GFP-LC3”; in the assay on LC3 in KYSE450 cells (5-FU or cisplatin (data not shown)) it was “Redistribution of GFP-LC3 from a diffuse cytosolic to a punctate autophagosome-associated pattern”; in the assay on LC3 in OE21 cells (setting [14]) it was “Diffuse cytoplasmic localization of GFP-LC3”; with LC3 in OE19 cells (5-FU (25 & 50 μM) or cisplatin (10 & 25 μM)), “Redistribution of GFP-LC3 from a diffuse cytosolic to a punctate autophagosome-associated pattern; also recorded: bright punctate patterns of GFP-LC3 fluorescence”. For the same compound, the “induction of autophagosome-associated LC3II band (Western blot)” value was “no induction of a lower autophagosome-associated LC3II-band” in the assay on LC3 in OE33 cells (24 and 48 hours); “no induction of a lower autophagosome-associated LC3II-band” in the assay on LC3 in OE21 cells (24 and 48 hours). In addition, the “LC3II levels (Western blot, GFP-LC3)” value in the assay with LC3 in KYSE450 cells (5-FU, 24 hours) is given as “significant increase in LC3II levels”; in the assay with LC3 in OE19 cells (5-FU, 24 hours) it was “significant increase in LC3II levels”. The “mitochondrial depolarization (JC-1)” value is reported as “mitochondrial depolarization” in the assay with OE33 [5], “significant mitochondrial depolarization” in the assay with OE21 [6], “do not show caspase-3 activity or mitochondrial membrane depolarization” in the assay with OE19 [7] and “do not show caspase-3 activity or mitochondrial membrane depolarization; also recorded: do not exhibit membrane depolarization” with KYSE450 [8]. For the same compound, in assay [9], the “survival: day beyond which no animal of the group is alive / final animal euthanized” value is 33 days. Besides, the MDC staining pattern entry is listed as “MDC staining patterns are diffuse” in the assay with OE33 [10], “MDC staining patterns are diffuse” in the assay on OE21 [11], “accumulation of MDC (bright blue punctate staining) throughout the cytoplasm” in the assay on OE19 [12] and “accumulation of MDC (bright blue punctate staining) throughout the cytoplasm” in the assay on KYSE450 [13].

These data come from patent publication US9155761B2, “Method for the treatment of cancer” (UNIVERSITY COLLEGE CORK, NATIONAL UNIVERSITY OF IRELAND, …, priority 2009, dated 2015).
